Assay results: ChEMBL document CHEMBL1759919, “1α,25-Dihydroxyvitamin D3-3β-bromoacetate, a potential cancer therapeutic agent: synthesis and molecular mechanism of action” (Bioorg Med Chem Lett, 2011)
The source made the active and inactive calls. The calls are words filed in the database; no cut-off is given here.

Assays:
Assay type in all cases: functional, cell-based
[1] = tested on: A498; assay: Induction of CYP24 mRNA expression in human A498 cells at 10^-8 M after 4 hrs by RT-PCR analysis
[2] = tested on: A498; assay: Induction of CYP24 mRNA expression in human A498 cells at 10^-8 M after 16 hrs by RT-PCR analysis
[3] = tested on: A498; assay: Induction of CYP24 mRNA expression in human A498 cells at 10^-6 M after 24 hrs by RT-PCR analysis

Compound | Activity [1] | Activity [2] | Activity [3]
C=C1/C(=C\C=C2/CCC[C@]3(C)[C@@H]([C@H](C)CCCC(C)(C)O)CC[C@@H]23)C[C@@H](O)C[C@@H]1O | Active | Active | 
C=C1/C(=C\C=C2/CCC[C@]3(C)[C@@H]([C@H](C)CCCC(C)(C)O)CC[C@@H]23)C[C@@H](OC(=O)CBr)C[C@@H]1O |  | Active | Active
